pIC50: −log10 of the molar value. Several values for one entry are separate records, joined by “and”; a condition that tells them apart may be missing. Equal values may be shown once.
Test system: 931267-113-T-J1-PDC multicell spheroid viability
Assay: Anticancer human tumor 931267-113-T-J1-PDC patient-derived colon adenocarcinoma cell line growth inhibition [PI3K]
Details: for viability, T/C: stronger effect = lower value
Text: Combinatorial screen of targeted agents with the PI3K inhibitors inavolisib, alpelisib, duvelisib, and copanlisib in multi-cell type tumor spheroids
A high-throughput screen of multi-cell type tumor spheroids was designed to identify active combinations of targeted small molecules and PI3K pathway inhibitors. Complex spheroids include a stromal component modeled by human endothelial cells (HUVEC) and fibroblasts modeled by human mesenchymal stem cells (MSCs). The concentration ranges selected for each drug and investigational agent were based upon clinically achievable concentrations if the clinical Cmax of the agent was known.
Compounds. The drugs and investigational agents: inavolisib (NSC800729), alpelisib (NSC765974), duvelisib (NSC772469), copanlisib (NSC816437), ipatasertib (NSC767898), afuresertib (NSC778305), talazoparib (NSC767125), sapanisertib (NSC764658), selumetinib (NSC741078), tovorafenib (DAY101, NSC766906), vemurafenib (NSC761431), ravoxertinib (NSC781343), sotorasib (NSC818433), MRTX1133 (NSC 836407), abemaciclib (NSC 768073), palbociclib (NSC758247), venetoclax (NSC 766270), SY5609 (NSC837396), enzalutamide (NSC755605), and darolutamide (NSC825331), were obtained from the National Cancer Institute (NCI) Developmental Therapeutics Program Chemical Repository. The FDA-approved anticancer drug set is available from the NCI Developmental Therapeutics Program. […] The stock solutions were prepared in dimethyl sulfoxide (DMSO, Sigma-Aldrich, St. Louis, MO, cat. D2650) at 800-fold the tested concentration and stored at -70 degrees C prior to their use. All drugs and investigational agents were tested over a range starting from a high concentration at or near the clinical Cmax and decreasing in half-log increments. If the clinical Cmax for an agent had not been determined, the highest concentration tested was 10 microM.
Cell Culture. All cells were maintained in an incubator at 37 degrees C and 5% CO2 with 95% humidity. The PDC lines were cultured according to standard operating procedures established by the NCI PDMR (https://pdmr.cancer.gov/sops/default.htm). All PDCs were thawed and cultured in Matrigel-coated flasks prepared with a working solution of 1X Ham's F-12 nutrient mix, without supplementation (Invitrogen, Waltham, MA, cat. 11765054), 100 U/mL penicillin-streptomycin (Invitrogen, cat. 15140122), and 2.5% Matrigel (Corning Inc., Corning, NY, cat. 354248) for the first three passages. The 354836-022-R-J1-PDC, 475296-252-R-J1-PDC, and 997726-040-R-J2-PDC lines were cultured in 6A media, which includes advanced DMEM/F-12 (Thermo Fisher Scientific, cat. 12634028), 10 mM HEPES (Thermo Fisher Scientific, cat. 15630080), 1X GlutaMAX supplement (Thermo Fisher Scientific, cat. 35050061), 0.1 mg/mL primocin (InvivoGen, San Diego, CA, cat. ant-pm-2), 10% defined fetal bovine serum, heat inactivated (HyClone Laboratories Inc., Logan, UT, cat. SH30070.03HI), 50% L-WRN conditioned media (ATCC, cat. CRL-3276), 1.25 mM N-Acetyl-L-cysteine (Sigma-Aldrich, cat. A9165), 10 mM nicotinamide (Sigma-Aldrich, cat. N0636), 1X B-27 supplement (Thermo Fisher Scientific, cat. 17504044), 1X N-2 supplement (Thermo Fisher Scientific, cat. 17502048), and 10 microM Y-27632 dihydrochloride (Tocris Bioscience, Bristol, United Kingdom, cat. 1254). The 624824-186-R-J2-PDC line was cultured in 6C/Colon 1B media, which includes all 6A media components plus 50 ng/mL human EGF recombinant protein (Thermo Fisher Scientific, cat. PHG0311). […]

[1] = curve of first compound, second compound 0.0316 µM
[2] = curve of first compound, second compound 0.1 µM
[3] = curve of first compound, second compound 0.316 µM
[4] = curve of first compound, second compound 1 µM
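Also: viability read 7 days after compound addition.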

For Cn1nccc1Nc1nccc(-c2ccn(C(CO)c3ccc(Cl)c(F)c3)c(=O)c2)n1 (stereo unspecified) + Cc1nc(NC(=O)N2CCCC2C(N)=O)sc1-c1ccnc(C(C)(C)C(F)(F)F)c1, the pIC50 [1] was 5.32, the pIC50 [2] was 5.45 and the pIC50 [3] was 5.62. It also gave a pIC50 [4] of 5.83, a pIC50 (curve of first compound, second compound 3.16 µM) of 6.19 and a pIC50 (curve of first compound, second compound 10 µM) of 6.84. The viability, T/C (second compound 0.0316 µM, first compound 0.0316 µM) was 94.7%, the viability, T/C (second compound 0.0316 µM, first compound 0.1 µM) was 90.4% and the viability, T/C (second compound 0.0316 µM, first compound 0.316 µM) was 92.4%. It also gave a viability, T/C (second compound 0.0316 µM, first compound 1 µM) of 77.2%, a viability, T/C (second compound 0.0316 µM, first compound 3.16 µM) of 57.5% and a viability, T/C (second compound 0.0316 µM, first compound 10 µM) of 37.3%. It also gave a viability, T/C (second compound 0.1 µM, first compound 0.0316 µM) of 102%, a viability, T/C (second compound 0.1 µM, first compound 0.1 µM) of 88.4% and a viability, T/C (second compound 0.1 µM, first compound 0.316 µM) of 82.8%. For the same molecule, the viability, T/C (second compound 0.1 µM, first compound 1 µM) was 68.9%, the viability, T/C (second compound 0.1 µM, first compound 3.16 µM) was 52.9% and the viability, T/C (second compound 0.1 µM, first compound 10 µM) was 31.7%. For the same molecule, the viability, T/C (second compound 0.316 µM, first compound 0.0316 µM) was 90.3%, the viability, T/C (second compound 0.316 µM, first compound 0.1 µM) was 92.2% and the viability, T/C (second compound 0.316 µM, first compound 0.316 µM) was 77.9%. It also gave a viability, T/C (second compound 0.316 µM, first compound 1 µM) of 68%, a viability, T/C (second compound 0.316 µM, first compound 3.16 µM) of 43.9% and a viability, T/C (second compound 0.316 µM, first compound 10 µM) of 27.5%. It also gave a viability, T/C (second compound 1 µM, first compound 0.0316 µM) of 86.4%, a viability, T/C (second compound 1 µM, first compound 0.1 µM) of 78.5% and a viability, T/C (second compound 1 µM, first compound 0.316 µM) of 71.4%. It also gave a viability, T/C (second compound 1 µM, first compound 1 µM) of 54%, a viability, T/C (second compound 1 µM, first compound 3.16 µM) of 39.5% and a viability, T/C (second compound 1 µM, first compound 10 µM) of 19.1%. The viability, T/C (second compound 3.16 µM, first compound 0.0316 µM) was 74.9%, the viability, T/C (second compound 3.16 µM, first compound 0.1 µM) was 65.2% and the viability, T/C (second compound 3.16 µM, first compound 0.316 µM) was 58.1%. It also gave a viability, T/C (second compound 3.16 µM, first compound 1 µM) of 43.6%, a viability, T/C (second compound 3.16 µM, first compound 3.16 µM) of 36.3% and a viability, T/C (second compound 3.16 µM, first compound 10 µM) of 15.2%. For the same molecule, the viability, T/C (second compound 10 µM, first compound 0.0316 µM) was 57%, the viability, T/C (second compound 10 µM, first compound 0.1 µM) was 50.7% and the viability, T/C (second compound 10 µM, first compound 0.316 µM) was 45.2%. The viability, T/C (second compound 10 µM, first compound 1 µM) was 39.4%, the viability, T/C (second compound 10 µM, first compound 3.16 µM) was 26.4% and the viability, T/C (second compound 10 µM, first compound 10 µM) was 14.3%.

With CC(C)n1nc(-c2ccc3oc(N)nc3c2)c2c(N)ncnc21 the viability, T/C (compound 0.000316 µM) was 101% [middle of 4 runs], the viability, T/C (compound 0.001 µM) was 88.2% and 95% (2×) and 92.1% and the viability, T/C (compound 0.00316 µM) was 96.8% [middle of 4 runs]. For the same molecule, the viability, T/C (compound 0.01 µM) was 96.1% [middle of 4 runs], the viability, T/C (compound 0.0316 µM) was 81.6% [middle of 4 runs] and the viability, T/C (compound 0.1 µM) was 52.2% [middle of 4 runs]. The pIC50 (curve of compound) was 7.07 and 7.03 and < 7.00.

For CC1(C)CCC(CN2CCN(c3ccc(C(=O)NS(=O)(=O)c4ccc(NCC5CCOCC5)c([N+](=O)[O-])c4)c(Oc4cnc5[nH]ccc5c4)c3)CC2)=C(c2ccc(Cl)cc2)C1, the viability, T/C (compound 0.0316 µM) was 97.9% [middle of 4 runs], the viability, T/C (compound 0.1 µM) was 95.5% [middle of 4 runs] and the viability, T/C (compound 0.316 µM) was 106% [middle of 4 runs]. The viability, T/C (compound 1 µM) was 103% [middle of 4 runs] and the viability, T/C (compound 3.16 µM) was 93.7% and 104% and 105% (2×).

With Cn1cnc2c(F)c(Nc3ccc(Br)cc3Cl)c(C(=O)NOCCO)cc21 + COc1c(OCCCN2CCOCC2)ccc2c3n(c(=NC(=O)c4cnc(N)nc4)nc12)CCN3 the pIC50 (curve of first compound, second compound 0.00316 µM) was 6.99, the pIC50 (curve of first compound, second compound 0.01 µM) was 7.09 and the pIC50 [1] was 7.37. The pIC50 [2] was 7.85, the pIC50 [3] was > 8.02 and the pIC50 [4] was > 8.02. It also gave a viability, T/C (second compound 0.00316 µM, first compound 0.00949 µM) of 83.7%, a viability, T/C (second compound 0.00316 µM, first compound 0.03 µM) of 71% and a viability, T/C (second compound 0.00316 µM, first compound 0.0949 µM) of 51.1%. The viability, T/C (second compound 0.00316 µM, first compound 0.3 µM) was 31.4%, the viability, T/C (second compound 0.00316 µM, first compound 0.949 µM) was 18.3% and the viability, T/C (second compound 0.00316 µM, first compound 3 µM) was 9.54%. For the same molecule, the viability, T/C (second compound 0.01 µM, first compound 0.00949 µM) was 88.6%, the viability, T/C (second compound 0.01 µM, first compound 0.03 µM) was 73.1% and the viability, T/C (second compound 0.01 µM, first compound 0.0949 µM) was 45%. For the same molecule, the viability, T/C (second compound 0.01 µM, first compound 0.3 µM) was 25.6%, the viability, T/C (second compound 0.01 µM, first compound 0.949 µM) was 15.3% and the viability, T/C (second compound 0.01 µM, first compound 3 µM) was 8.03%. It also gave a viability, T/C (second compound 0.0316 µM, first compound 0.00949 µM) of 76.4%, a viability, T/C (second compound 0.0316 µM, first compound 0.03 µM) of 57% and a viability, T/C (second compound 0.0316 µM, first compound 0.0949 µM) of 33.7%. The viability, T/C (second compound 0.0316 µM, first compound 0.3 µM) was 17.5%, the viability, T/C (second compound 0.0316 µM, first compound 0.949 µM) was 10.3% and the viability, T/C (second compound 0.0316 µM, first compound 3 µM) was 5.43%. For the same molecule, the viability, T/C (second compound 0.1 µM, first compound 0.00949 µM) was 56.4%, the viability, T/C (second compound 0.1 µM, first compound 0.03 µM) was 37.7% and the viability, T/C (second compound 0.1 µM, first compound 0.0949 µM) was 19.6%. For the same molecule, the viability, T/C (second compound 0.1 µM, first compound 0.3 µM) was 11.9%, the viability, T/C (second compound 0.1 µM, first compound 0.949 µM) was 7.31% and the viability, T/C (second compound 0.1 µM, first compound 3 µM) was 4.08%. It also gave a viability, T/C (second compound 0.316 µM, first compound 0.00949 µM) of 39.2%, a viability, T/C (second compound 0.316 µM, first compound 0.03 µM) of 25.2% and a viability, T/C (second compound 0.316 µM, first compound 0.0949 µM) of 14.3%. The viability, T/C (second compound 0.316 µM, first compound 0.3 µM) was 8.7%, the viability, T/C (second compound 0.316 µM, first compound 0.949 µM) was 5.28% and the viability, T/C (second compound 0.316 µM, first compound 3 µM) was 2.51%. It also gave a viability, T/C (second compound 1 µM, first compound 0.00949 µM) of 26.2%, a viability, T/C (second compound 1 µM, first compound 0.03 µM) of 17.8% and a viability, T/C (second compound 1 µM, first compound 0.0949 µM) of 9.52%. For the same molecule, the viability, T/C (second compound 1 µM, first compound 0.3 µM) was 4.72%, the viability, T/C (second compound 1 µM, first compound 0.949 µM) was 2.93% and the viability, T/C (second compound 1 µM, first compound 3 µM) was 1.42%.
